How the values were obtained:
[1] = system: DLD-1 cells; experiment: Colon cancer cell growth, BrdU incorporation, DLD-1 cells; type: cell-based, human; conditions: for effect on cell growth (in words) / inhibition at 500 µM / inhibition at 1000 µM / inhibition at 2500 µM / inhibition at 5000 µM / inhibition at 10000 µM: DLD-1 cells, 48 hours; for effect on cell growth (in words): 0.5-10 mM; for inhibition at 500 µM / inhibition at 1000 µM / inhibition at 2500 µM / inhibition at 5000 µM / inhibition at 10000 µM: Homo sapiens, BrdU; for inhibition at 500 µM: 0.5 mM; for inhibition at 1000 µM: 1 mM; for inhibition at 2500 µM: 2.5 mM; for inhibition at 5000 µM: 5 mM; for inhibition at 10000 µM / effect on cell growth at high doses (in words): 10 mM; for effect on cell growth at high doses (in words): differences among groups not statistically significant
Procedure: (§1) The following substances (i e 20, 34, 35, 39 and 40) were tested for their ability to modulate colon cancer cell growth. For this purpose, three human colon carcinoma cell lines (i.e. HT-29, HT-115 and DLD-1) were used. These cell types were selected on the basis of the cyclooxigenase-2 (COX-2) expression. Indeed. HT-115 cells express a biologically active COX-2, HT-29 cells express a non-functional COX-2 isoform, and DLD-1 are COX-2-deficient cells.
HT-29 and DLD-1 cells were cultured in McCoy and RPMI1640 media respectively, supplemented with 10% fetal bovine serum (FBS), 1% penicillin/streptomycin (P/S) and […] gentamycin. HT-115 were cultured in DMEM medium supplemented with 15% FBS and 1% P/S. Cells were maintained in a humidified Incubator at 37° C., in the presence of 5% CO2.
For cell growth assays, single-cell suspensions were plated at 2×10^3 cells/well (4×10^3 cells/well for HT115) in 96-well culture dishes in medium containing 0.5% FBS and allowed to adhere. The non-adherent cells were then removed, and fresh medium containing 0.5% FBS was added into each well. Cells were cultured in the presence or absence of the specified substances. Each substance was dissolved as a 25 mM stock solution in culture medium containing 0.5% FBS, and the pH of each stock solution was adjusted to 7.4, if necessary, with NaOH. Substances were used at a final concentration ranging from 0.5 to 10 mM.
(§2) Cell proliferation was determined by measuring the incorporation of 5-bromo-2′-deoxyuridine (BrdU) into DNA using a commercially available cell proliferation kit (Roche Diagnostics, Monza, Italy). BrdU was added to the cell cultures during the last 6 hours of incubation, and the level of BrdU-positive cells was assessed after 48 h culture by enzyme-linked immunosorbent assay (ELISA). Optical density (OD) was determined at 450 nm using an ELISA reader. Experiments were performed in triplicate and the results are reported as the mean t standard deviation (SD).
Cells were cultured in the presence or absence of the compounds, and cell growth was then assessed by the colorimetric (BrdU) assay after 48 hours culture.

[2] = biological target: T1, PPARγ (Homo sapiens, UniProt P37231); experiment: PPARγ transcriptional activity, renilla luciferase/PPRE reporter gene in transfected HT-29 cells; type: cell-based; conditions: 24 hours
T1 construct: transient transfections of epithelial cells with the renilla luciferase and PPRE plamids; endogenous in cells; host or cells: HT-29 human colon carcinoma cells
T1 sequence (P37231 1-505): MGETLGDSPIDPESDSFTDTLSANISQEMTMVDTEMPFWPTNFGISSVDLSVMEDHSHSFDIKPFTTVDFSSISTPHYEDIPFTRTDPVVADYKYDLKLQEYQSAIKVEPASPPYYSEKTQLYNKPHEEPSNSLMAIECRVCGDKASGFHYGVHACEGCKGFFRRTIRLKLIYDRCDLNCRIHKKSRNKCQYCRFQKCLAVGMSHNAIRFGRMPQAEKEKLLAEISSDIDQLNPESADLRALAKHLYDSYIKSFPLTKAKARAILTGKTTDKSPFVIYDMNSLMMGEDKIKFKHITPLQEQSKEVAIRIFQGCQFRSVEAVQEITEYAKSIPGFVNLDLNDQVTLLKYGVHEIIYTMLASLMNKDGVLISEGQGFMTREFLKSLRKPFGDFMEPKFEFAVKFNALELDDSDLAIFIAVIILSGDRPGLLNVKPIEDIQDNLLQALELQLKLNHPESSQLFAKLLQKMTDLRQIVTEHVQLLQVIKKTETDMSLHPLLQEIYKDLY
Procedure: Activation of PPARγ results in a cascade of reactions leading to a binding to specific DNA sequence elements termed peroxisome proliferator response elements (PPRE) (7-9).
We investigated PPARγ transcriptional activity by transient transfections of epithelial cells with the renilla luciferase and PPRE plamids. To evaluate if the new molecules have more efficacy than 5-ASA to stimulate PPARγ activation, we tested these molecules at a concentration of 1 mM. […] Cells were stimulated with the different molecules during 24 hours.
FIG. 2 represents all the results obtained for each molecule assessed in 2 or 3 experiments done in triplicate. Reproducibility between the different experiments is good and similar to data described in the literature.

[3] = system: HT-115 cells; experiment: Colon cancer cell growth, BrdU incorporation, HT-115 cells; type: cell-based, human; conditions: 0.5-10 mM, 48 hours
Procedure: (§3) FIG. 3 and FIG. 4: Effect of the specified substances on the proliferation of human colon carcinoma cell lines (i.e. HT29, HT 115 and DLDI). Cells were treated with increasing concentrations of substances (0.5-10 mM)) for 48 hours and the proliferation was determined by using a colorimetric assay for the measurement of BrdU incorporation. Optical density (OD) was determined at 450 nm using an ELISA reader.
as §1, with “cells. […]” for “cells.”
as §2, with “Experiments were performed in triplicate and the results are reported as the mean t standard deviation (SD).” left out

[4] = system: HT-29 cells; experiment: Colon cancer cell growth, BrdU incorporation, HT-29 cells; type: cell-based, human; conditions: 0.5-10 mM, 48 hours
Procedure: as §3
as §1, with “cells. […]” for “cells.”
as §2, with “Experiments were performed in triplicate and the results are reported as the mean t standard deviation (SD).” left out

For `CCOC(Cc1cccc(N)c1)C(=O)O` (racemic) [Compound 40, (±)-2-ethoxy-3-(3′-aminophenyl)-propanoic acid], the “effect on cell growth (in words)” value [1] was “no inhibition in cell growth”, the inhibition at 500 µM [1] was 2% and the inhibition at 1000 µM [1] was 0%. The inhibition at 2500 µM [1] was 0%, the inhibition at 5000 µM [1] was 0% and the inhibition at 10000 µM [1] was 2.7%. For the same compound, the “increase of the reporter gene activity (PPARγ activity)” value (“increase of the reporter gene activity” for short) ([2]; 1 mM) was 3.4±0.97 fold.
For `COC(Cc1ccc(N)cc1)C(=O)O` (racemic) [Compound 34, (±)-2-methoxy-3-(4′-aminophenyl)-propionic acid], the “effect on cell growth at high doses (in words)” value [1] was “slightly reduced the cell growth”, the inhibition at 500 µM [1] was 0% and the inhibition at 1000 µM [1] was 3.6%. It also gave an inhibition at 2500 µM [1] of 1.8%, an inhibition at 5000 µM [1] of 3.6% and an inhibition at 10000 µM [1] of 15.1%. For the same compound, the “increase of the reporter gene activity” value ([2]; 1 mM) was 4.8±0.71 fold.
`CCOC(Cc1ccc(N)cc1)C(=O)O` (racemic) [Compound 39, (±)-2-ethoxy 3-(4′-aminophenyl)-propionic acid] was tested, and the “effect on cell growth at high doses (in words)” value [1] was “slightly reduced the cell growth”, the inhibition at 500 µM [1] was 1.6% and the inhibition at 1000 µM [1] was 3.3%. The inhibition at 2500 µM [1] was 8.2%, the inhibition at 5000 µM [1] was 11.5% and the inhibition at 10000 µM [1] was 12.8%. For the same compound, the “increase of the reporter gene activity” value ([2]; 1 mM) was 2.73±0.31 fold.
With `COC(Cc1cccc(N)c1)C(=O)O` (racemic) [Compound 35, (±)-2-methoxy-3-(3′-aminophenyl)-propionic acid] the “effect on cell growth (in words)” value [1] was “no inhibition in cell growth”, the inhibition at 500 µM [1] was 0% and the inhibition at 1000 µM [1] was 3.2%. The inhibition at 2500 µM [1] was 1.6%, the inhibition at 5000 µM [1] was 6.4% and the inhibition at 10000 µM [1] was 4.8%. For the same compound, the “increase of the reporter gene activity” value ([2]; 1 mM) was 2.64±0.40 fold.
With `Nc1ccc(O)c(C(=O)O)c1` [Compound 5-ASA, 5-amino salicylic acid, reference compound] the “increase of the reporter gene activity” value ([2]; 30 mM, positive control) was 2.8±0.7 fold.
`Nc1cccc(CC(O)C(=O)O)c1` (racemic) [Compound 20, (±)-2-hydroxy-3-(3′-aminophenyl)-propanoic acid] was tested, and the “effect on cell growth (in words)” value [3] was “marked anti-proliferative effect in a dose-dependent fashion”, the “effect on cell growth (in words)” value [1] was “marked anti-proliferative effect in a dose-dependent fashion” and the inhibition at 500 µM [1] was 4.3%. The inhibition at 1000 µM [1] was 12.8%, the inhibition at 2500 µM [1] was 16.2% and the inhibition at 5000 µM [1] was 25.6%. For the same compound, the inhibition at 10000 µM [1] was 47%, the “significance of cell growth inhibition (in words)” value ([1]; final concentration of 5 or 10 mM, cell line not specified) was “significantly inhibit cell growth” and the “effect on cell growth (in words)” value [4] was “marked anti-proliferative effect in a dose-dependent fashion”.

Source: patent US9133099B2, “Compounds and their salts specific to the PPAR receptors and the EGF receptors and their use in the medical field” (Nogra Pharma Limited, priority 2005, dated 2015)
